This is an account of results in US10912819B2, “Neuroprotective peptides derived from activity-dependent neuroprotective protein for treatment of neurological diseases” (priority 2016, dated 2021).

Entries after “also recorded” stand apart in the source; their conditions may differ.

The subject of assay [1] is Adnp^+/− mice. Briefly: Social memory test. The format is in vivo. On the procedure: FIG. 3. NAP treatment increases social memory. Animal performance is shown. (A, animals were as in FIG. 2A,B; n=9-12 per group). Data are expressed as mean±SEM total time (sec) spent exploring mice designated by relative discrimination index (D2=(b−a)/(a+b); b=time sniffing novel mouse, a=time sniffing familiar mouse). An empty wire cup and a cup containing target mouse (“familiar”) were placed in the center of the right or left chamber. After 3 hours, a novel mouse was put inside the empty cup, while the other cup contained the familiar mouse. The Adnp^+/− mice spent less time in exploring the novel mouse, as compared to Adnp^+/+ mice.
(§1) Experiments performed as we described in Malishkevich et al., 2015 (37) and Amram et al., Mol Psychiatry. 2016 October; 21(10):1467-76 (7). 3-6 month-old male mice were used, drug application (0.5 μg/5 μl/mouse) was once daily, for one month and then behavioral assays were initiated together with drug application. In experiments with the vehicle termed DD (NAP-benzalkonium), drug application was at 2 months of age and continued as above. Open field experiments (16, 17) and elevated plus maze evaluations (18) were carried out as before.

Assay [2] deals with Adnp^+/− mice. Briefly: Grip strength test. The following applies: male mice, treatment from 2 months of age, 0.5 μg NAP/mouse/day intranasal in DD, 5 weeks; p<0.05. In kind it is in vivo. On the procedure:
The grip strength test measures forelimbs muscle strength using the UgoBasile 47200-Grip-Strength Meter. Each animal was tested five times and the peak force of each mouse was recorded. Data are expressed as mean±SEM.

Assay [3] relates to individuals suffering from progressive supranuclear palsy (PSP). The following applies: 30 mg twice daily, changed formulation; cited from earlier work.
In assay [4] the test system is Akap6. Briefly: Akap6 tongue gene expression, quantitative real-time PCR. The format is in vivo, mice. As to the method: Tongue total RNA was extracted from 4-month-old mice (treated with NAP/DD as above) and analyzed for Akap6, Hprt, and Gapdh mRNA expression by quantitative real-time PCR (n=6-14 replicates per experimental group). HPRT and Gapdh served as normalizing transcripts.
(§2) Quantitative reverse transcription real time polymerase chain reaction (RT-PCR) was performed as before (18, 37).
In general terms: Quantitative PCR measures a nucleic acid by following its amplification.

Assay [5] relates to Foxp2. Briefly: Foxp2 mRNA expression in the tongue, quantitative real-time PCR. The format is in vivo. The settings on record: 4-month-old mice treated with NAP/DD, normalized to Gapdh; increased in Adnp-deficient mice. As to the method:
(B) Foxp2 (the language-linked gene) expression in the tongue is increased in Adnp-deficient mice and is normalized by NAP. Tongue total RNA was extracted from 4-month-old mice (treated with NAP/DD as above) and analyzed for Foxp2 and Gapdh mRNA expression by quantitative real-time PCR (n=3-7 animals per experimental group). Gapdh served as a normalizing transcript. […] Two-way ANOVA analysis was performed using SigmaPlot. Sexual dichotomy determined by t-test analysis was also observed for the increased Foxp2 expression between Adnp males and females (**p<0.01).
as §2

For assay [6], the system named is Akap6. In words: Hippocampal Akap6 mRNA expression, quantitative real-time PCR. The settings on record: 7.5-month-old mice treated with NAP/CB, normalized to Hprt. The format is in vivo. On the procedure: In females, NAP regulates genes deregulated with ADNP mutation in the hippocampus. […] Sexual dichotomy determined by t-test analysis was also observed for Akap6 and Chl1 expression between Adnp^+/− males and females (#p<0.05, ##p<0.01, ###p<0.001).
as §2

The subject of assay [7] is Adnp^+/− mice. In words: Elevated plus maze test. In kind it is in vivo. The settings on record: male mice, 5 min, NAP new formulation (CB); NAP-treated vs Adnp^+/− p<0.001. On the procedure: FIG. 4. […] The relative time spent in the open/closed arms for 5 min is presented (n=9-12 per group). Data are expressed as mean±SEM. D2 calculates the exploration time of the open arms (a) and the exploration time of the closed arms (b).
as §1
Experiments were performed as described (18), assessing the different times spent in open arms (indicative of exploratory behavior) versus closed arms (indicative of anxious behavior) in the elevated plus maze (FIG. 4).

Assay [8] concerns Adnp^+/− mice. In words: MRI diffusion tensor imaging of chronically treated brains. The following applies: NAP in CB vs CB-treated Adnp^+/− mice. The format is in vivo. On the procedure:
MRI was performed on a 7.0 T/30 spectrometer (Bruker, Rheinstetten, Germany) using a volume coil for excitation and a rat quadrature coil for acquisition. The MRI protocols included coronal T2 and diffusion tensor imaging (DTI). T2 weighted images obtained with RARE sequence, with repetition time=3000 msec and echo time=49 msec, RARE factor 8, 4 averages, field of view of 2×2 cm, matrix dimensions of 256×256 and 24 slices of 0.5 mm thickness with no gap. The 24 coronal sections were used for volumetric analysis of the whole brain, Lateral ventricle and Hippocampus. DTI was obtained using a diffusion-weighted (DW) spin-echo echo-planar-imaging (EPI) pulse sequence with the following parameters: TR/TE=4000/25 ms, Δ/δ=10/4.5 ms, 4 EPI segments and 32 non-collinear gradient directions with a single b value (1000 sec/mm^2) and two images with b value of 0 sec/mm2 (referred to as b0). Geometrical parameters were: 24 slices of 0.5 mm thickness, matrix size of 128×128 and FOV of 20 mm^2). The imaging protocol was repeated 3 times for signal averaging and to compensate for acquisition where significant head motion was observed. Image analysis included DTI analysis of the DW-EPI images to produce the FA, radial, and axial diffusivity indexed maps.

In assay [9] the test system is Adnp^+/− mice. In words: Odor discrimination test. The format is in vivo. As to the method:
As social memory depends on olfactory function, NAP treatment was also tested in odor discrimination test. Odors were presented on a suspended cotton swab to the test mouse placed into the clean cage with fresh shavings. Each mouse was tested during three consecutive 2-min periods for each odor, with 2-min intervals between presentations. The x axis indicates the consecutive number of the odor exposure period. The time that the mouse smelled the swab was recorded (beginning whenever the animal oriented its nostrils toward the cotton swab, within 2 cm or less). (Malishkevich et al., Transl Psychiatry (2015) 5, e501; Amram et al., Mol Psychiatry. 2016 10:1467-76).

In assay [10] the test system is schizophrenia patients. The following applies: clinical study; cited from earlier work.
[11] abbreviates: 5-month-old mice, 0.5 μg NAP/mouse/day intranasal in CB, 8 weeks, NAP vs vehicle p<0.05.
Where [12] appears, read: tongue, 4-month-old mice, NAP/DD, p<0.05.

Regarding `CC[C@H](C)[C@H](NC(=O)[C@H](CO)NC(=O)[C@@H](NC(=O)[C@@H]1CCCN1C(=O)[C@H](C)NC(=O)[C@@H](N)CC(N)=O)C(C)C)C(=O)N1CCC[C@H]1C(=O)N[C@@H](CCC(N)=O)C(=O)O` [NAP], the “social memory, females” value in assay [1] (2-month-old mice, 0.5 μg NAP/mouse/day intranasal in DD, 7 weeks, NAP vs vehicle p<0.05) was “significant difference”. For the same compound, in [1] (setting [11]), the “social memory, females” value was “significant difference” and the “social memory, males” value was “significant difference”. Also, the “social memory (relative discrimination index novel vs familiar mouse)” value in assay [1] (male mice 6-9 months, NAP in CB intranasal, FIG. 3A, NAP vs vehicle p<0.001) was “improved social memory”. Moreover, the “forelimbs muscle strength (grip force)” value in [2] is given as “significantly improving it”. In addition, the “efficacy in PSP” value in assay [3] is recorded as “did not show efficacy”. Besides, the “dysregulated Akap6 expression in the tongue” value in assay [4] (FIG. 8 C,D) was “amelioration”. Also, in assay [4] (tongue, 4-month-old mice, NAP/DD), the “Akap6 normalized to Gapdh: vehicle Adnp^+/− female mice compared to NAP-treated Adnp^+/− mice” value is recorded as “significantly increased expression”. Besides, in [4] (setting [12]), the “Akap6 normalized to Gapdh: NAP-treated Adnp^+/− male mice compared to vehicle-treated” value is “significantly increased” and the “Akap6 normalized to Hprt: vehicle Adnp^+/− male mice compared to NAP-treated Adnp^+/− mice” value is “significantly decreased”. Also, in assay [5], the “Foxp2 expression in the tongue, females” value is recorded as “decreasing it” and the “Foxp2 expression in the tongue, males” value was “normalizing it”. Besides, the “hippocampal Akap6 expression, females, NAP-treated vs vehicle-treated Adnp^+/− mice” value in [6] is listed as “ameliorated; also recorded: significantly increased expression”. For the same compound, the “increased anxiety: relative time spent in open/closed arms” value in assay [7] is “ameliorated”. In assay [8] (hippocampal area −1.84 mm from Bregma), the “hippocampal mean diffusivity (MD)” value is recorded as “although insignificantly, was reduced”. Besides, the “hippocampal fractional anisotropy (FA)” value in assay [8] (hippocampal area −2.34 mm from Bregma, p<0.05) is recorded as “significantly reduced”. Moreover, the “general olfaction ability (AUC), males” value in assay [9] (2-month-old mice (n=3-4), NAP intranasal in DD, 8 weeks, two-way ANOVA p=0.046) is on record as “main effect for treatment”. Besides, the “general olfaction ability (AUC), females” value in assay [9] (5-month-old mice, NAP intranasal in CB, 9 weeks, NAP vs vehicle p<0.01) was “significant difference”. Further, the “general olfaction ability (AUC), males” value in [9] (5-month-old mice, NAP intranasal in CB, 9 weeks, NAP vs vehicle p<0.05) is “significant difference”. Besides, the “general change in olfactory behavior” value in assay [9] (FIG. 3D-G, both sexes, CB and DD) is recorded as “apparently normalized”. Also, the “functional activities of daily living” value in assay [10] is “protection of functional activities of daily living”.
